# Measured values published in patent US11312712B2, “Azabenzimidazoles and their use as AMPA receptor modulators” (Janssen Pharmaceutica NV, priority 2015, dated 2022).
# Molecular target: GluA1o-γ8 (GRIA1o-CACNG8 fusion construct) (Homo sapiens (Human), UniProt P42261+Q8WXS5)
# Experiment: Calcium flux assay (FLIPR), inhibition of TARP γ8 dependent AMPA receptor activity
# Type: cell-based
# Details: GluA1o-γ8 (GRIA1o-CACNG8 fusion) in HEK293 cells, calcium flux after 15 μM glutamate
# Method in brief: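 HEK293 cells stably expressing a 1:1 GRIA1o–CACNG8 fusion were loaded with Calcium-5/6 dye plus compound in pH 7.4 HEPES-buffered saline. FLIPR calcium flux after 15 μM glutamate was normalized to untreated and 10 μM CP465022 controls, and a four-parameter logistic fit gave pIC50.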
# GluA1o-γ8 (GRIA1o-CACNG8 fusion construct), sequence (P42261 other isoform, or with tags, fused parts or gaps): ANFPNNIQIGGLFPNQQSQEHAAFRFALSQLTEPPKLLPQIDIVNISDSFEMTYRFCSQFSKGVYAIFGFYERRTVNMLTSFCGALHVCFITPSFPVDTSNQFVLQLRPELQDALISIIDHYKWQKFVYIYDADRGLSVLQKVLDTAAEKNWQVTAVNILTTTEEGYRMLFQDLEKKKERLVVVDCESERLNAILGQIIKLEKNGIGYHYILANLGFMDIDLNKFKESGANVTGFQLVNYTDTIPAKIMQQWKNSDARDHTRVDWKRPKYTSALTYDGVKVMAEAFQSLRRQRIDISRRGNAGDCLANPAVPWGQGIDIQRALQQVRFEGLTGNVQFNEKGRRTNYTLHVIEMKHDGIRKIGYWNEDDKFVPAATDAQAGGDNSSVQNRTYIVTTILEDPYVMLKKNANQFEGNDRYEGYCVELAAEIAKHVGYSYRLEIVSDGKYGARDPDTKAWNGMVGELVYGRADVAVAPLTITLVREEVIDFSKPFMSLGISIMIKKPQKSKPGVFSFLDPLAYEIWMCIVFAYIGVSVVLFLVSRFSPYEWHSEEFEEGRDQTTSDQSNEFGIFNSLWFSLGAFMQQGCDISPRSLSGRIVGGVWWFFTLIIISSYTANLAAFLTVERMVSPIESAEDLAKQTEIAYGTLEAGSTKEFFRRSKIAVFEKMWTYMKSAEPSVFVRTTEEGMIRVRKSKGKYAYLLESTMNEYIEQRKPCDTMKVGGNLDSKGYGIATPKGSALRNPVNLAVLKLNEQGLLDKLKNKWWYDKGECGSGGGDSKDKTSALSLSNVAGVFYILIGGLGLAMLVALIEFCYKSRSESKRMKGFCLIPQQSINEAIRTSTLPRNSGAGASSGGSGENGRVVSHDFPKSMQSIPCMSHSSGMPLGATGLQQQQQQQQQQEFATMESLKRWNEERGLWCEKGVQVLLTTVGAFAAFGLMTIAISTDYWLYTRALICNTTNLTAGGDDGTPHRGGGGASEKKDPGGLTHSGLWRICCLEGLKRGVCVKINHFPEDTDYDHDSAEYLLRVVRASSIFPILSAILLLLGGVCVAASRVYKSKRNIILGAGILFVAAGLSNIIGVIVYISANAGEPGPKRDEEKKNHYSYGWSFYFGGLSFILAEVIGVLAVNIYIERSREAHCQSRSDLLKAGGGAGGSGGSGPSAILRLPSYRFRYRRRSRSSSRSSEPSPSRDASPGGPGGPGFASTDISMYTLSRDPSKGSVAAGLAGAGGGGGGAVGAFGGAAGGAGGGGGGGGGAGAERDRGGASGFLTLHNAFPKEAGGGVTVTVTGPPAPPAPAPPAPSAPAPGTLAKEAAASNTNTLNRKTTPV
row,IC50 [nM],Structure (SMILES)
1,316,"FC(F)(F)c1ccc2nc(C(F)(F)F)n(-c3cc(-c4ccccc4)c4[nH]ncc4c3)c2n1 [Example 188, 3-(7-Phenyl-1H-indazol-5-yl)-2,5-bis(trifluoromethyl)-3H-imidazo[4,5-b]pyridine]"
2,0.2,"Cc1cc(-n2c(C(C)(C)F)nc3ccc(C(F)(F)F)nc32)cc2cn[nH]c12 [Example 253, 2-(1-Fluoro-1-methyl-ethyl)-3-(7-methyl-1H-indazol-5-yl)-5-(trifluoromethyl)imidazo[4,5-b]pyridine]"
3,2.51,"FC(F)(F)c1ccc2ncn(-c3cc(Cl)c4[nH]ncc4c3)c2n1 [Example 306, 3-(7-Chloro-1H-indazol-5-yl)-5-(trifluoromethyl)imidazo[4,5-b]pyridine]"
4,1.58,"FC(F)(F)c1ccc2nc(C3CCC3)n(-c3ccc4[nH]ncc4c3)c2n1 [Example 103, 2-Cyclobutyl-3-(1H-indazol-5-yl)-5-(trifluoromethyl)imidazo[4,5-b]pyridine]"
5,100,"Cc1cc(-n2c(C(F)(F)F)nc3ccc(CCCO)nc32)cc2cn[nH]c12 [Example 223, 3-(3-(7-Methyl-1H-indazol-5-yl)-2-(trifluoromethyl)-3H-imidazo[4,5-b]pyridin-5-yl)propan-1-ol]"
6,1,"Cc1cc(-n2c(CO)cc3ccc(C(F)(F)F)nc32)cc2c1NC(=O)C2 [Example 329, 5-(2-(Hydroxymethyl)-6-(trifluoromethyl)-1H-pyrrolo[2,3-b]pyridin-1-yl)-7-methylindolin-2-one]"
7,10000,"O=C(c1nc2ccc(C(F)(F)F)nc2n1-c1ccc2[nH]ncc2c1)N1CCCC1 [Example 173, [3-(1H-Indazol-5-yl)-5-(trifluoromethyl)imidazo[4,5-b]pyridin-2-yl]-pyrrolidin-1-yl-methanone]"
8,0.0126,"Cc1cc(-n2c(-c3ccc(F)cc3)nc3ccc(C(F)(F)F)nc32)cc2cn[nH]c12 [Example 195, 2-(4-Fluorophenyl)-3-(7-methyl-1H-indazol-5-yl)-5-(trifluoromethyl)imidazo[4,5-b]pyridine]"
9,126,"COC(=O)c1cc(-n2c(C(F)(F)F)nc3ccc(C(F)(F)F)nc32)cc2cn[nH]c12 [Example 284, Methyl 5-[2,5-bis(trifluoromethyl)imidazo[4,5-b]pyridin-3-yl]-1H-indazole-7-carboxylate]"
10,0.0316,"CC(C)c1ccc2nc(C3CCC3)n(-c3ccc4[nH]ncc4c3)c2n1 [Example 119, 2-Cyclobutyl-3-(1H-indazol-5-yl)-5-isopropyl-imidazo[4,5-b]pyridine]"
11,0.2,"O=c1[nH]c2ccc(-n3c(C4CCCC4)nc4ccc(C(F)(F)F)nc43)cc2s1 [Example 39, 6-[2-Cyclopentyl-5-(trifluoromethyl)imidazo[4,5-b]pyridin-3-yl]-3H-1,3-benzothiazol-2-one]"
12,25.1,"Cc1cc(O)c2nc(-c3ccc(F)cc3)n(-c3ccc4[nH]c(=O)sc4c3)c2n1 [Example 72, 6-(2-(4-Fluorophenyl)-7-hydroxy-5-methyl-3H-imidazo[4,5-b]pyridin-3-yl)benzo[d]thiazol-2(3H)-one]"
13,0.126,"CC(C)Cc1nc2ccc(C(F)(F)F)nc2n1-c1cc(Cl)c2[nH]ncc2c1 [Example 414, 3-(7-Chloro-1H-indazol-5-yl)-2-isobutyl-5-(trifluoromethyl)-3H-imidazo[4,5-b]pyridine]"
14,63.1,"FC(F)(F)c1ccc2nc(C(F)(F)F)n(-c3ccc4cn[nH]c4c3)c2n1 [Example 291, 3-(1H-Indazol-6-yl)-2,5-bis(trifluoromethyl)imidazo[4,5-b]pyridine]"
15,0.631,"CC(C)c1ccc2nc(C(F)(F)F)n(-c3ccc4[nH]ncc4c3)c2n1 [Example 170, 3-(1H-Indazol-5-yl)-5-isopropyl-2-(trifluoromethyl)imidazo[4,5-b]pyridine]"
16,0.126,"O=c1[nH]c2ccc(-n3c(C(F)F)cc4ccc(C(F)(F)F)nc43)cc2s1 [Example 337, 6-[2-(Difluoromethyl)-6-(trifluoromethyl)pyrrolo[2,3-b]pyridin-1-yl]-3H-1,3-benzothiazol-2-one]"
